{"source": "PubChem BioAssay (NCI)", "system": "MDA-MB-468 breast", "assay": "NCI anticancer screen, dose series, 48 h", "note": "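The compound was tested at five concentrations on cells cultured in 96-well plates, with a 48-hour exposure period. Abbreviation: GI50, concentration required for 50% inhibition of growth. TGI: total growth inhibition.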 *1 amine or outer side, *2 acyl side, *3 side chain or, on linkers, in order; H or OH if unused. Where a SMILES comes first, the peptide text is derived from it. [ ]: non-standard residue; d: D form. The star is where a group is joined. ξ: configuration not given here. X15 = CCN(CC)c1ccc2cc(N*)c(=O)oc2c1; dIva = CC[C@@](C)(N)C(=O)O; X14 = O=C(OCCN[*:1])[*:2]; Aib = CC(C)(N)C(=O)O; ξP = O=C(O)C1CCCN1; βAla = NCCC(=O)O", "data": [{"smiles": "Nc1n[nH]c2ccc([C@@H]3Nc4ccc5[nH]ncc5c4[C@H]4C5C=CC(C5)[C@@H]34)cc12", "note": "(stereo partly drawn)", "values": [{"measurement": "GI50", "result": 0.329, "unit": "µM"}, {"measurement": "TGI", "result": 16, "unit": "µM"}]}, {"smiles": "Nc1nc(N)c(N=O)c(OCC2CCCCC2)n1", "values": [{"measurement": "GI50", "result": 15.2, "unit": "µM"}, {"measurement": "TGI", "result": 52.9, "unit": "µM"}]}, {"smiles": "CCN(CC)c1ccc2cc(NC(=O)OCCNC(=O)CCNC(=O)[C@H](CC(C)C)NC(=O)C(C)(C)NC(=O)C(C)(C)NC(=O)[C@H](CC(C)C)NC(=O)CCNC(=O)C(C)(C)NC(=O)[C@H](CC(C)C)NC(=O)CCNC(=O)[C@@](C)(CC)NC(=O)[C@H](C)NC(=O)CCNC(=O)C(C)(C)NC(=O)[C@H](C)NC(=O)[C@@H]3CCCN3C(=O)[C@@](C)(CC)NC(=O)[C@H](Cc3ccccc3)NC(=O)C3CCCN3C(=O)C(C)(C)NC(=O)C3CCCN3C(=O)C(C)(C)NC(C)=O)c(=O)oc2c1", "note": "(stereo partly drawn) (Ac-[Aib][ξP][Aib][ξP]F[dIva]PA[Aib][βAla]A[dIva][βAla]L[Aib][βAla]L[Aib][Aib]L[βAla][X14]-X15)", "values": [{"measurement": "GI50", "result": 0.00277, "unit": "µM"}, {"measurement": "TGI", "result": 0.00774, "unit": "µM"}]}, {"smiles": "O=C(CCCSc1nc(-c2ccccc2)cc(-c2ccc(Cl)cc2)n1)NO", "values": [{"measurement": "GI50", "result": 1.58, "unit": "µM"}, {"measurement": "TGI", "result": 3.89, "unit": "µM"}]}, {"smiles": "CC(C)c1ccc(Nc2nccc(-c3cnn4ncccc34)n2)cc1", "values": [{"measurement": "GI50", "result": 0.271, "unit": "µM"}, {"measurement": "TGI", "result": 0.833, "unit": "µM"}]}, {"smiles": "O=C(OCCBr)c1ccc(Cl)c([N+](=O)[O-])c1", "values": [{"measurement": "GI50", "result": 1.9, "unit": "µM"}, {"measurement": "TGI", "result": 4.09, "unit": "µM"}]}, {"smiles": "Cn1ccnc1C(=O)/C=C/c1ccc(CC(=O)Nc2ccc(C(F)(F)F)cc2)cc1", "values": [{"measurement": "GI50", "result": 2.09, "unit": "µM"}, {"measurement": "TGI", "result": 4.66, "unit": "µM"}]}, {"smiles": "COc1cc(C(=O)/C=C/c2cccnc2Nc2ccccc2)cc(OC)c1OC", "values": [{"measurement": "GI50", "result": 0.665, "unit": "µM"}, {"measurement": "TGI", "result": 2.1, "unit": "µM"}]}, {"smiles": "CC1(C)CC[C@]23CC[C@]4(C)[C@H](CC[C@@H]5[C@@]6(C)CC[C@H](NCO)C(C)(C)[C@@H]6CC[C@]54C)[C@H]2[C@H]1OC3", "values": [{"measurement": "GI50", "result": 1.85, "unit": "µM"}, {"measurement": "TGI", "result": 3.71, "unit": "µM"}]}]}
